In ChEMBL document CHEMBL3044703, “Safening efficacy of halogenated acetals, ketals and amides and relationship between the structure and effect on glutathione and glutathione S-transferases in maize” (2007):
The source made the active and inactive calls. No cut-off for these calls is given here.

Assays:
Zea mays [1] = assay: Increase in GSH content in Zea mays (maize) shoot at 50 uM applied to seeds incubated for 5 days by DNTB-based spectrophotometric analysis relative to control; type: functional
Zea mays [2] = assay: Safening activity against acetochlor-induced phytotoxicity against Zea mays (maize) assessed as increase in shoot length at 50 uM applied pre-emergence measured 14 days after treatment relative to acetochlor-treated control; type: functional
Zea mays [3] = assay: Effect on GSH content in Zea mays (maize) shoot at 50 uM applied to seeds incubated for 5 days by DNTB-based spectrophotometric analysis relative to control; type: functional, organism-based
Zea mays [4] = assay: Increase in GSH content in Zea mays (maize) root at 50 uM applied to seeds incubated for 5 days by DNTB-based spectrophotometric analysis relative to control; type: functional
Zea mays [5] = assay: Increase in GST activity in Zea mays (maize) root at 50 uM applied to seeds incubated for 5 days by CDNB-based spectrophotometric analysis relative to control; type: functional
Zea mays [6] = assay: Decrease in GSH content in Zea mays (maize) root at 50 uM applied to seeds incubated for 5 days by DNTB-based spectrophotometric analysis relative to control; type: functional, organism-based
Zea mays [7] = assay: Effect on GST activity in Zea mays (maize) shoot at 50 uM applied to seeds incubated for 5 days by CDNB-based spectrophotometric analysis relative to control; type: functional, organism-based
Zea mays [8] = assay: Increase in GST activity in Zea mays (maize) shoot at 50 uM applied to seeds incubated for 5 days by CDNB-based spectrophotometric analysis relative to control; type: functional, organism-based
Zea mays [9] = assay: Increase in GST activity in Zea mays (maize) shoot at 50 uM applied to seeds incubated for 5 days by [14C]acetochlor-based liquid scintillation assay relative to control; type: functional
Zea mays [10] = assay: Effect on GST activity in Zea mays (maize) root at 50 uM applied to seeds incubated for 5 days by [14C]acetochlor-based liquid scintillation assay relative to control; type: functional, organism-based
Zea mays [11] = assay: Increase in GST activity in Zea mays (maize) root at 50 uM applied to seeds incubated for 5 days by [14C]acetochlor-based liquid scintillation assay relative to control; type: functional
Zea mays [12] = assay: Decrease in GST activity in Zea mays (maize) root at 50 uM applied to seeds incubated for 5 days by CDNB-based spectrophotometric analysis relative to control; type: functional, organism-based

| Structure (SMILES) | Activity (Zea mays [1]) | Activity (Zea mays [2]) | Activity (Zea mays [3]) | also measured |
| --- | --- | --- | --- | --- |
| CCCOC(C)(OCCC)C(Cl)Cl | inactive | 63% | inactive | Activity (Zea mays [4]): inactive |
| ClC(Cl)C1OCCCCCO1 |  | 24% | inactive | fold change (FC) (Zea mays [5]): 2; Activity (Zea mays [6]): Active |
| C=CCNC(=O)CCl [N-ALLYL-2-CHLOROACETAMIDE] |  | 48% |  | fold change (FC) (Zea mays [1]): 2.25; Activity (Zea mays [7]): inactive; fold change (FC) (Zea mays [4]): 2.25 |
| C=CCN(CC=C)C(=O)C(Cl)Cl [DICHLORMID] |  | 81% |  | fold change (FC) (Zea mays [1]): 1.78; Activity (Zea mays [7]): inactive; fold change (FC) (Zea mays [4]): 1.65 |
| ClC(Cl)C1OCCCCCCO1 |  | 24% | inactive | fold change (FC) (Zea mays [5]): 4 |
| CC1(C)COC(C)(C(Cl)Cl)OC1 | Active | Active | inactive | Activity (Zea mays [8]): Active |
| CC1(C(Cl)Cl)OCCCCCCO1 | Active | Active | inactive | Activity (Zea mays [8]): Active |
| ClC(Cl)C1OCCO1 |  | 24% | inactive | Activity (Zea mays [6]): Active |
| ClC(Cl)C1OCCCO1 |  | 24% | inactive | Activity (Zea mays [6]): Active |
| CC1(C(Cl)Cl)OCCCCCO1 | Active | Active | inactive | Activity (Zea mays [8]): Active |
| CCCCOC(OCCCC)C(Cl)Cl |  | 24% | inactive |  |
| CC(C)COC(C)(OCC(C)C)C(Cl)Cl |  |  | inactive | fold change (FC) (Zea mays [9]): 4.72 |
| ClC(Cl)C1(c2ccccc2)OCCO1 |  | Active | inactive | fold change (FC) (Zea mays [1]): >2; Activity (Zea mays [8]): Active; fold change (FC) (Zea mays [4]): >2 |
| CCCOC(OCCC)C(Cl)Cl |  | 24% | inactive |  |
| CC1(C(Cl)Cl)OCCCCO1 | Active | 70% | inactive | Activity (Zea mays [10]): inactive; Activity (Zea mays [8]): Active |
| C=CCN(CC=C)C(=O)CBr |  |  |  | Activity (Zea mays [11]): Active; Activity (Zea mays [9]): Active; Activity (Zea mays [7]): inactive |
| CCCCOC(C)(OCCCC)C(Cl)Cl |  |  | inactive |  |
| CCOC(CBr)OCC [BROMOACETAL] | Active | 60% |  | fold change (FC) (Zea mays [9]): 3.76; Activity (Zea mays [12]): Active |
| ClC(Cl)C1OCCCCO1 |  | 24% | inactive | Activity (Zea mays [6]): Active |
| CC1(C(Cl)Cl)OCCO1 | Active | 64% | inactive | fold change (FC) (Zea mays [11]): 3.64; fold change (FC) (Zea mays [9]): 3.93; Activity (Zea mays [8]): Active |
| CC1(C)COC(C(Cl)Cl)OC1 |  | 24% | inactive | Activity (Zea mays [6]): Active |
| CC1(C(Cl)Cl)OCCCO1 | Active | 68% | inactive | Activity (Zea mays [8]): Active |
| CCOC(CCl)OCC [MONOCHLOROACETAL] | Active | 24% |  | Activity (Zea mays [12]): Active |
| CC(C)COC(OCC(C)C)C(Cl)Cl |  | 24% | inactive |  |
| C=CCN(CC=C)C(=O)CCl |  |  |  | Activity (Zea mays [11]): Active; Activity (Zea mays [9]): Active; Activity (Zea mays [7]): inactive |
| CCOCN(C(=O)CCl)c1c(C)cccc1CC |  |  |  | Activity (Zea mays [11]): Active; Activity (Zea mays [9]): Active |
| CCOC(OCC)C(Cl)Cl |  | 24% | inactive | Activity (Zea mays [12]): Active; Activity (Zea mays [8]): Active |
| CCOC(C)(OCC)C(Cl)Cl | inactive | 62% | inactive | Activity (Zea mays [4]): inactive |
